PMC5760734, “Development of an oral once-weekly drug delivery system for HIV antiretroviral therapy” (Nature Communications, 2018)

Tests used:
[1] = Drug stability at high temperature (150 °C, 2 h), HPLC; assay type: physicochemical; conditions: 150 °C for 2 h
Protocol: To determine the drug stability at high temperatures, the drug was weighed in a 20 mL glass vial, and placed in a convection oven at 150 °C for 2 h. Drug was dissolved in methanol, and the concentration was compared to that of an unheated standard of the same initial concentration via HPLC.

[2] = Plasma pharmacokinetics of immediate release and gastric resident dosage forms in pigs; assay type: in vivo, Yorkshire pigs
Protocol: All animal experiments were approved by the Committee on Animal Care at the Massachusetts Institute of Technology. In vivo pharmacokinetics were evaluated in an unblinded fashion in female Yorkshire pigs (50–95 kg) that were randomly assigned to the immediate release or sustained release groups. Animals were fed daily in the morning and in the evening with a diet consisting of pellets (Laboratory mini-pig growler diet, 5081), with a midday snack consisting of various fruits and vegetables. Specifically, the pellets were 5/32” x ¼” length, and consisted of ground oats, alfalfa meal, wheat middlings, soybean meal, dried beet pulp, salts and other micronutrients.
To determine the oral pharmacokinetics of immediate release dosage forms of DTG and CAB, 50 mg of DTG and 30 mg of CAB were weighed and filled into gelatine capsules. For RPV pharmacokinetics, RPV base was dissolved in poly(ethylene glycol) (molecular weight—400 Da) containing 10-fold molar excess of citric acid. The concentration of RPV base in this solution was 5 mg/mL and 5 mL of the solution was dosed in a gelatine capsule. […] To determine oral pharmacokinetics from gastric retentive dosage forms, the arms of dosage forms (2–3/pig containing 350 mg DTG, 175 mg RPV or 210 mg CAB) were folded into capsule shells immediately prior to dosing. […]. The capsules containing drug or dosage form were delivered into the intestine or stomach respectively. At various time points, blood samples (0.5 mL) were collected from a central line connected to the external jugular vein or from a mammary vein into […] Vacutainer gold top tubes (Becton, Dickinson and Co. USA). Plasma samples were separated from blood by centrifugation (1800g, 10 min at 4 °C) and were stored at −80 °C. Atropine can reduce gastric acid production and gastric motility which may affect the overall drug pharmacokinetics and the gastric retention of the dosage form. […]. Drug concentrations in the plasma were analysed using UPLC-MS/MS. Plasma samples (100 µL) were spiked with 200 µL acetonitrile solution of 250 µg/mL maraviroc (internal standard) to cause precipitation. Samples were vortexed and sonicated for 10–20 min and then centrifuged (21130g, 10 min). Two hundred microliters of solution were pipetted into a 96-well plate containing 200 µL of nanopure water. Finally, 2.5 μL was injected onto the UPLC–ESI–MS system for analysis.
UPLC separation was carried out on a Waters® UPLC aligned with a Waters® Xevo–TQ-SMS mass spectrometer (Waters Ltd., UK). MassLynx® 4.1 software was used for data acquisition and analysis. Liquid chromatography separation was performed on an Acquity® UPLC CSH C18 (50 × 2.1 mm, 1.7 μm particle size) column at 50 °C. The mobile phase consisted of acetonitrile spiked with 0.1% formic acid and 10 mM ammonium formate solution. The mobile phase was flowed at a rate of 0.6 mL/min using a time and solvent gradient composition. The initial composition (100% aqueous) was held for 1 min, following which the composition was changed linearly to 20% organic phase over the next 0.25 min. The composition was then brought to 100% organic over 1.25 min, held for 0.5 min and finally shifted to the initial composition and held constant until the end of the run for column equilibration. The total run time was 4 min and sample injection volume was 2.5 μL. The mass spectrometer was operated in the multiple reaction monitoring (MRM) mode. Sample introduction and ionization was by electrospray ionization (ESI) in the positive ion mode. DTG, RPV and CAB were analysed at mass-to-charge ratios of […] respectively. Stock solutions of DTG, RPV, CAB, and an internal standard maraviroc were prepared in methanol at a concentration of 500 μg/mL. A ten-point calibration curve was prepared ranging from 2.5–5000 ng/mL. Quality control samples were prepared in a similar procedure using an independent stock solution at three concentrations (5, 50 and 500 ng/mL). […]

[3] = humans receiving the usual oral dose; stated by Reviewer 1, no reference; cited from earlier work
[4] = Drug release from polymer matrices in SGF; assay type: physicochemical; conditions: for drug released: n = 3
Protocol: Drug loaded polymer matrices were synthesized by melt mixing. Appropriate amounts of drug and polymer were weighed and mixed in a 20 mL glass vial. The vial was then placed in a convection oven at 130 °C to melt the polymer. The mixture was then transferred to a negative mould heated to the same temperature. Once the mould was filled with the melted mixture, it was removed from the oven and cooled at room temperature.
Drug release studies were performed in SGF supplemented with 5%w/w Tween® 20. The drug–polymer matrices were placed in 50 mL release media at 37 °C in an incubator shaker at 150 r.p.m. At various times, about 1 mL of the media was collected and stored at −20 °C until further analysis. The rest of the media was discarded and the drug–polymer matrix was placed in fresh media. Drug concentrations in the aliquots were measured using HPLC as described previously.

[5] = system: HIV reference strain NL4-3; design: method as in ref 46,55–57 (a number printed in a supplementary file, which may have a reference list of its own: not looked up in the article's list); conditions: wild-type virus; cited from earlier work
HIV = system: HIV; design: method as in ref 2–6 (a number printed in a supplementary file, which may have a reference list of its own: not looked up in the article's list); conditions: monotherapy or dual therapy with rilpivirine, after a two-year follow up; cited from earlier work
[6] = immediate release formulation, pigs

C[C@@H]1CCO[C@H]2Cn3cc(C(=O)NCc4ccc(F)cc4F)c(=O)c(O)c3C(=O)N12 [DTG, dolutegravir]
stability at elevated temperature [1]: stable | Tmax ([2]; female, Yorkshire, pig, plasma, oral, immediate release formulation, pigs, post-dose, read-out: time of maximum plasma concentration (converted)): 6 h | mean peak plasma concentration relative to immediate release ([2]; gastric resident system, pigs): comparable to that of the immediate release formulation | time to mean peak plasma concentration ([2]; gastric resident system, pigs): ≤ 6 h | average (sustained) plasma drug concentrations throughout the week following dosing ([2]; gastric resident system, pigs, n = 3): 200 to 800 ng/mL | duration of sustained drug concentrations ([2]; gastric resident system, single dose): up to 1 week | day at or after which no drug was detected in plasma [2, 6]: 2 days | plasma drug concentrations on day 1 [2, 6]: low but detectable | time to detectable plasma concentrations [2, 6]: ≤ 15 min | average maximum plasma concentration ([2]; immediate release formulation, pigs, n = 3): ~ 500 ng/mL | usual Cmax in humans [3]: 3700 ng/mL | drug released ([4]; PCL matrix, over a week): 5% | total drug release from poly(anhydrides) relative to PCL ([4]; poly(anhydride) matrices vs PCL): 4–8 fold | drug released ([4]; poly(ethylene glycol) matrix, within the first 6 h): 60–70% | IC50 [5]: 70 nM | m (slope parameter of Hill curve) [5]: 1.2 | patients with plasma viremia levels of <50 copies/mL (HIV): > 95 % patients
